# Counter-ions that a name gives are not always drawn.
# Target: T1, human NCX1 (Homo sapiens, UniProt P32418)
# T1 construct: expressed in transfected cells
# Experiment: Inhibition of Ca2+ influx into cells (NCX1 reverse mode), FLIPR Fluo-4 assay
# Assay type: cell-based
# Conditions: at 10 μM; NCX1 reverse mode; IC50 value not determined; read-out: Inhibition in % at 10 μM (NCX1rv)
# Outline: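 CHO cells stably expressing human NCX1, loaded with Fluo-4 AM, preincubated with compound 45 min at 16 °C in pH 7.4 buffer (3.5 mM CaCl2). Reverse mode triggered by 20 µM gramicidin (final); Fluo-4 fluorescence read at 520 nm every 2 s. IC50 from percentage inhibition of max-minus-min fluorescence.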
row,Compound,inhibition at 10 µM
1,Cc1ccccc1C1CCc2cc(OC3CCC(NCCCOC4CCCC4)CC3)ccc2O1 (centres unmarked) [compound 199],71%
2,Cc1ccccc1C1CCc2cc(OC3CCC(NCCSC(C)C)CC3)ccc2O1 (centres unmarked) [compound 194],85%

# Same assay, conditions: at 10 μM; NCX1 reverse mode; IC50 value not determined; read-out: NCX1rv inhibition in % at 10 μM
row,Compound,inhibition at 10 µM
1,Cc1ccccc1C1CCc2cc(OC3CCC(NCCCOC(C)C)CC3)ccc2O1 (centres unmarked) [compound 190],93%

# Same assay, conditions: inhibition of NCX1 in reverse mode (Ca2+ influx into cells); read-out: NCX1rv IC50
row,Compound,IC50
1,"Cc1c(F)cccc1C1CCc2cc(OC3CCC(C(=O)NC4CCCC4O)CC3)ccc2O1 (single isomer, unassigned; stereoisomer 1) [compound 279, 4-[2-(3-Fluoro-2-methyl-phenyl)chroman-6-yloxy]-N-(2-hydroxycyclopentyl)cyclohexane-carboxamide, stereoisomer 1 (2)]",700 nM
2,c1ccc(C2CCc3cc(OC4CCC(NCCCOC5CCCC5)CC4)ccc3O2)cc1 (centres unmarked) [compound 126],1600 nM
3,CS(=O)(=O)NC[C@H]1CC[C@@H](Oc2ccc3c(c2)CCC(c2ccccc2)O3)CC1 (relative stereo) [compound 3],700 nM
4,C[C@H]1CC[C@H](NC2CCC(Oc3ccc4c(c3)CCC(c3ccccc3)O4)CC2)CC1 (relative stereo) [compound 146],2000 nM
5,"NCC(=O)NC1CCC(Oc2ccc3c(c2)CCC(c2ccccc2)O3)CC1 (centres unmarked) [compound 12, hydrochloride]",200 nM
6,CCCNC1CCC(Oc2ccc3c(c2)CCC(c2ccccc2)O3)CC1 (centres unmarked) [compound 113],500 nM
7,Cc1ccccc1C1CCc2cc(O[C@H]3CC[C@H](NCC(=O)O)CC3)ccc2O1 (relative stereo) [compound 271],800 nM
8,"O=C1CCC(Oc2ccc3c(c2)CCC(c2ccccc2)O3)CC1 (centres unmarked) [compound 77, 4-(2-Phenylchroman-6-yloxy)cyclohexanone]",400 nM
9,"Cc1c(F)cccc1C1CCc2cc(OC3CCC(C(=O)NC4CCCC4O)CC3)ccc2O1 (single isomer, unassigned; stereoisomer 2) [compound 280, 4-[2-(3-Fluoro-2-methyl-phenyl)chroman-6-yloxy]-N-(2-hydroxycyclopentyl)cyclohexane-carboxamide, stereoisomer 2 (2)]",100 nM
10,O=C(NCc1ccno1)C1CCC(Oc2ccc3c(c2)CCC(c2ccccc2)O3)CC1 (centres unmarked) [compound 13],300 nM
11,CCC(COC)NC1CCC(Oc2ccc3c(c2)CCC(c2ccccc2F)O3)CC1 (centres unmarked) [compound 222],3100 nM
12,"NC[C@H]1CC[C@@H](Oc2ccc3c(c2)CCC(c2ccccc2)O3)CC1 (relative stereo) [compound 1, hydrochloride]",500 nM
13,O=C(CC(F)(F)F)N[C@H]1CC[C@H](Oc2ccc3c(c2)CCC(c2ccccc2F)O3)CC1 (relative stereo) [compound 240],100 nM
14,CC(C)SCCNC1CCC(Oc2ccc3c(c2)CCC(c2ccccc2)O3)CC1 (centres unmarked) [compound 119],1100 nM
15,"Cc1ncsc1CN[C@H]1CC[C@H](Oc2ccc3c(c2)CCC(c2ccccc2)O3)CC1 (stereo partly drawn) [compound 67, N-(4-Methylthiazol-5-ylmethyl)-[trans-4-(2-phenylchroman-6-yloxy)]-cyclohexylamine]",400 nM
16,Cc1c(F)cccc1C1CCc2cc(OC3CCC(C(=O)NCc4ccno4)CC3)ccc2O1 (centres unmarked) [compound 263],100 nM
17,O=C(CSC(F)(F)F)N[C@H]1CC[C@H](Oc2ccc3c(c2)CCC(c2ccccc2F)O3)CC1 (relative stereo) [compound 260],400 nM
18,Cc1ccccc1C1CCc2cc(OC3CCC(C(=O)NC(CO)CO)CC3)ccc2O1 (centres unmarked) [compound 264],200 nM
19,CC(C)C(C)NC1CCC(Oc2ccc3c(c2)CCC(c2ccccc2)O3)CC1 (centres unmarked) [compound 109],1000 nM
20,CCOCCCNC1CCC(Oc2ccc3c(c2)CCC(c2ccccc2F)O3)CC1 (centres unmarked) [compound 223],3100 nM
21,O=C(N[C@H]1CC[C@H](Oc2ccc3c(c2)CCC(c2ccccc2F)O3)CC1)C1CC1 (relative stereo) [compound 239],100 nM
22,CSCC(=O)N[C@H]1CC[C@H](Oc2ccc3c(c2)CCC(c2ccccc2)O3)CC1 (relative stereo) [compound 19],100 nM
23,"COC(=O)CNC(=O)C1CCC(Oc2ccc3c(c2)CCC(c2ccccc2)O3)CC1 (single isomer, unassigned; stereoisomer 1) [compound 91, Methyl 2-{[cis-4-(2-phenylchroman-6-yloxy)cyclohexanecarbonyl]amino}acetate,stereoisomer 1 (2)]",400 nM
24,c1ccc(C2CCc3cc(O[C@H]4CC[C@H](NCc5ccsc5)CC4)ccc3O2)cc1 (relative stereo) [compound 50],600 nM
25,"Cn1cc(Cl)c(CN[C@H]2CC[C@H](Oc3ccc4c(c3)CCC(c3ccccc3)O4)CC2)n1 (stereo partly drawn) [compound 62, N-(4-Chloro-1-methyl-pyrazol-3-ylmethyl)-[trans-4-(2-phenylchroman-6-yloxy)]-cyclohexylamine]",600 nM
26,O=C(N[C@H]1CC[C@H](Oc2ccc3c(c2)CCC(c2ccccc2)O3)CC1)C1CC1(F)F (relative stereo) [compound 32],100 nM
